Assay results taken from PubChem BioAssay (NCI).
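48-hour exposure; five concentrations; linearly interpolated endpoints. The concentration for 50% growth inhibition is given as GI50. TGI: total growth inhibition.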

Key:
Experiment in all cases: NCI anticancer screen, dose series, 48 h
[1] = tested on: 786-0 renal
[2] = tested on: A549 NSCLC
[3] = tested on: BT-549 breast
[4] = tested on: CAKI-1 renal
[5] = tested on: CCRF-CEM leukemia
[6] = tested on: COLO 205 colon
[7] = tested on: DU-145 prostate
[8] = tested on: EKVX NSCLC
[9] = tested on: HCC-2998 colon
[10] = tested on: HCT-116 colon
[11] = tested on: HCT-15 colon
[12] = tested on: HL-60(TB) leukemia
[13] = tested on: HOP-62 NSCLC
[14] = tested on: HOP-92 NSCLC
[15] = tested on: HS 578T breast
[16] = tested on: HT29 colon
[17] = tested on: IGROV1 ovarian
[18] = tested on: K-562 leukemia
[19] = tested on: KM12 colon
[20] = tested on: MALME-3M melanoma
[21] = tested on: MCF7 breast
[22] = tested on: MDA-MB-231 breast
[23] = tested on: MDA-MB-435
[24] = tested on: MOLT-4 leukemia
[25] = tested on: NCI-H23 lung
[26] = tested on: NCI-H522 lung
[27] = tested on: OVCAR-4 ovarian
[28] = tested on: OVCAR-8 ovarian
[29] = tested on: PC-3 prostate
[30] = tested on: RPMI-8226 leukemia
[31] = tested on: RXF 393 renal
[32] = tested on: SF-268 CNS
[33] = tested on: SF-295 CNS
[34] = tested on: SK-MEL-28 melanoma
[35] = tested on: SK-MEL-5 melanoma
[36] = tested on: SK-OV-3 ovarian
[37] = tested on: SN12C renal
[38] = tested on: SNB-19 CNS
[39] = tested on: SNB-75 CNS
[40] = tested on: SR leukemia
[41] = tested on: SW-620 colon
[42] = tested on: T-47D breast
[43] = tested on: U251 CNS
[44] = tested on: UACC-257 melanoma

## Oc1ccc(CSc2nnc(-c3ccc(Cl)cc3)o2)c2cccnc12
[1]
  GI50: 3220 nM
  TGI: > 100000 nM
[2]
  GI50: 2780 nM
  TGI: > 100000 nM
[3]
  GI50: 2470 nM
  TGI: > 100000 nM
[4]
  GI50: 2910 nM
  TGI: > 100000 nM
[5]
  GI50: 1000 nM
  TGI: > 100000 nM
[6]
  GI50: > 100000 nM
  TGI: > 100000 nM
[7]
  GI50: 3670 nM
  TGI: > 100000 nM
[8]
  GI50: 2760 nM
  TGI: > 100000 nM
[9]
  GI50: 2290 nM
  TGI: > 100000 nM
[10]
  GI50: 1760 nM
  TGI: > 100000 nM
[11]
  GI50: 698 nM
  TGI: > 100000 nM
[12]
  GI50: 1910 nM
  TGI: 9570 nM
[13]
  GI50: 2920 nM
  TGI: > 100000 nM
[14]
  GI50: 1140 nM
  TGI: 6720 nM
[15]
  GI50: 1620 nM
  TGI: 64700 nM
[16]
  GI50: > 100000 nM
  TGI: > 100000 nM
[17]
  GI50: 2800 nM
  TGI: > 100000 nM
[18]
  GI50: 2170 nM
  TGI: > 100000 nM
[19]
  GI50: 1960 nM
  TGI: > 100000 nM
[20]
  GI50: 2870 nM
  TGI: > 100000 nM
[21]
  GI50: 2660 nM
  TGI: > 100000 nM
[22]
  GI50: 3180 nM
  TGI: > 100000 nM
[23]
  GI50: 2960 nM
  TGI: > 100000 nM
[24]
  GI50: 2370 nM
  TGI: > 100000 nM
[25]
  GI50: 2420 nM
  TGI: > 100000 nM
[26]
  GI50: 2920 nM
  TGI: > 100000 nM
[27]
  GI50: 3070 nM
  TGI: > 100000 nM
[28]
  GI50: 2320 nM
  TGI: > 100000 nM
[29]
  GI50: 1490 nM
  TGI: > 100000 nM
[30]
  GI50: 1220 nM
  TGI: > 100000 nM
[31]
  GI50: 2370 nM
  TGI: > 100000 nM
[32]
  GI50: 1560 nM
  TGI: > 100000 nM
[33]
  GI50: 2340 nM
  TGI: > 100000 nM
[34]
  GI50: 2380 nM
  TGI: > 100000 nM
[35]
  GI50: 1890 nM
  TGI: 5160 nM
[36]
  GI50: 3150 nM
  TGI: > 100000 nM
[37]
  GI50: 2540 nM
  TGI: > 100000 nM
[38]
  GI50: 1520 nM
  TGI: > 100000 nM
[39]
  GI50: 1520 nM
  TGI: 7810 nM
[40]
  GI50: 777 nM
  TGI: > 100000 nM
[41]
  GI50: 2910 nM
  TGI: > 100000 nM
[42]
  GI50: 2540 nM
  TGI: > 100000 nM
[43]
  GI50: 1110 nM
  TGI: > 100000 nM
[44]
  GI50: 3190 nM
  TGI: > 100000 nM
